Source: PMC3880124 (MedChemComm, 2013)
Like-named read-outs stand apart in the source and are kept apart here.

Key:
SK1 [1] = molecular target: T1, SK1 (Homo sapiens, UniProt Q9NYA1); experiment: SK1 expression in PASMC; conditions: 10 μM, 24 h, western blot
PASMC = conditions: 24 h
SK1 [2] = molecular target: T1, SK1; experiment: Inhibition of SK1 activity; conditions: compound at 50 μM; Sph 3 μM
SK2 [3] = molecular target: T2, SK2 (Homo sapiens, UniProt Q9NRA0); experiment: Test of compounds as SK2 substrates; type: biochemical; conditions: compound at 50 μM
T2 sequence (Q9NRA0 1-654): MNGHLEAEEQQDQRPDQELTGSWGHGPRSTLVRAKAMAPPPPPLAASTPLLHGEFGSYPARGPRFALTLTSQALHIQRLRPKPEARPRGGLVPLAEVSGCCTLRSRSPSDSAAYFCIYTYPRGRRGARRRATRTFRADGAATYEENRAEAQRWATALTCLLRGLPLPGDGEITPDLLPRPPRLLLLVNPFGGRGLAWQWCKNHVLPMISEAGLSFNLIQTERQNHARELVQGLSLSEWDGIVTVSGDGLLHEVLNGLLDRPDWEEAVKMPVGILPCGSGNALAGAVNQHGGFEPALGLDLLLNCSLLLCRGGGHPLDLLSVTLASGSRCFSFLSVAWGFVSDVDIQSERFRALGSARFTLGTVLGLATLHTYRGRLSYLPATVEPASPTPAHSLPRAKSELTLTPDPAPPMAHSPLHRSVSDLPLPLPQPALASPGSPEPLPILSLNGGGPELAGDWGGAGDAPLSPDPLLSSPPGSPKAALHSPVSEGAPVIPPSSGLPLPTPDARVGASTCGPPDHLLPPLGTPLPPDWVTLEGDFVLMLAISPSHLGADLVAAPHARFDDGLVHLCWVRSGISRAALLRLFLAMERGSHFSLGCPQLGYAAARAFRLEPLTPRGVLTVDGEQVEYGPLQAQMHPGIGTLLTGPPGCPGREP

SK1 [4] = molecular target: T1, SK1; experiment: Test of compounds as SK1 substrates; type: biochemical; conditions: compound at 50 μM
SK2 [5] = molecular target: T2, SK2; experiment: Inhibition of SK2 activity; type: biochemical; conditions: compound at 50 μM; Sph 10 μM

T1 sequence (Q9NYA1 whole entry): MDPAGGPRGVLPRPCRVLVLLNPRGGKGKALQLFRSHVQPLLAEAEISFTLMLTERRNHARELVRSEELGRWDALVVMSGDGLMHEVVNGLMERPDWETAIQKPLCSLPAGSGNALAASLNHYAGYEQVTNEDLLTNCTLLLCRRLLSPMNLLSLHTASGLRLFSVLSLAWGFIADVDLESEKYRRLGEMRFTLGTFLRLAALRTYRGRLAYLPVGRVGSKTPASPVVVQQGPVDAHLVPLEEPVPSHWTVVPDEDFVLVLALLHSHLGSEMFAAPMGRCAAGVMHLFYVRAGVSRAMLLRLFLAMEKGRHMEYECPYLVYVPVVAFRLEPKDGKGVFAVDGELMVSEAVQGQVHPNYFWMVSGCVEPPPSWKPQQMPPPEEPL

| SK1 inhibition in words (SK1 [2]) | substrate of SK2 (SK2 [3]) | substrate of SK1 (SK1 [4]) | SK2 inhibition in words (SK2 [5]) | Compound | further results |
| --- | --- | --- | --- | --- | --- |
| more effective SK1 inhibitors |  |  |  | CCCCCCCCCCCCCCC[C@@H](O)[C@H](C)N [55-21, (2S,3R)-2-amino-3-octadecanol] | effect on SK1 expression (SK1 [1]): reduced the expression of SK1; effect on DNA synthesis (PASMC; 100 nM and 1 μM): significantly inhibited DNA synthesis |
|  | efficiently phosphorylated by SK2 | weak substrates of SK1 |  | CCCCCCCCCCCCC/C=C\[C@@H](O)[C@@H](N)CO [67-302] |  |
| weak inhibitor of both SK isoforms |  |  | weak inhibitor of both SK isoforms | CCCCCCCCCCCCC/C=C/[C@@H](O)[C@H](CO)NC(=S)Nc1ccc(C(F)(F)F)cc1 [67-330] |  |
|  |  | weak substrates of SK1 |  | CCCCCCCCCCCCCC[C@H]1OC[C@H](NC(=S)Nc2c(F)c(F)c(F)c(F)c2F)[C@@H]1O [67-341] |  |
| effective SK1 inhibitor |  |  |  | CCCCCCCCCCCCCCOC[C@@H](O)[C@H](C)N(C)C [77-7] |  |
| nonselective SK inhibitor |  | weak substrates of SK1 | nonselective SK inhibitor | CCCCCCCCCCCCCCC[C@@H](O)[C@H](C)[N+](C)(C)C.Cc1ccc(S(=O)(=O)[O-])cc1 [77-13] |  |
|  | very weak substrates of SK2 | weak substrates of SK1 | less effective | CCCCCCCCCCCCCCC[C@@H](O)[C@H](CO)NC(=S)Nc1cccc(F)c1 [F-01] |  |
|  | very weak substrates of SK2 |  |  | CCCCCCCCCCCCCCC[C@@H](O)[C@H](CO)NC(=S)Nc1cccc(C(F)(F)F)c1 [F-02] | effect on SK1 expression (SK1 [1]): without effect on SK1 expression |
|  |  |  |  | Cc1cc(CS(=O)(=O)c2ccccc2)cc(OCc2ccc(CN3CCC[C@@H]3CO)cc2)c1 [PF-543] | effect on DNA synthesis (PASMC; 10 nM and 100 nM): ineffective at reducing DNA synthesis |
|  |  |  | abolished SK1 and SK2 activity | CCCCCCCCCCCCc1ccc(C(=O)N2CCC[C@H]2C(=N)N)cc1.Cl [VPC96091, reference compound] | effect on DNA synthesis (PASMC; 300 nM): ineffective at reducing DNA synthesis |
